Experiments:
AT-2-HIV-pulsed DCs [1] = test: Ex vivo cytotoxic assay, HIV-specific cytolysis by splenocytes; type: in vivo; conditions: AT-2-HIV-immunized BALB/c mice; 5 mg/kg daily intramuscular for 7 days; P<0.01
Description: (§1) Aldrithiol-2 (AT-2)-inactivated HIV (10^9/50 μl) (LU and ANDRIEU, J. Virol., vol. 75, p: 8949-56, 2001) or human chromogranin A (hCgA, a protein associated with neuro-endocrine tumours (DEGORCE et al., Br. J. Cancer., vol. 79, p: 65-71, 1999); 10 μg/50 μl) plus incomplete Freund's adjuvant (IFA) (50 μl) were injected subcutaneously into 4- to 6-week-old male BALB/c mice (Institute of Laboratory Animal Science, Beijing, China). Mice immunized with AT-2-inactivated HIV (n=12) or hCgA (n=12) were randomly divided into two subgroups. One subgroup (n=6) received daily intramuscular injection of 5-azacytidine (Sigma, St Louis, Mo.) at a dose of 5 mg/kg for 7 days and the other subgroup (n=6) received 0.9% sodium chloride as control. Animals were killed at day 7 for ex vivo analysis. […]
(§2) Splenocytes were taken from 7-day-immunized mice and plated into Micro Tubes-Bulk (Bio-Rad, Hercules, Calif.) in the presence of CFSE (Molecular Probes, PoortGebouw, The Netherlands)-labelled AT-2-HIV- or hCgA-pulsed dendritic cells (DCs) at different E:T ratios for 4 h at 37° C. […] Target cytolysis was analyzed on a FACSCalibur (BD Immunocytometry System, San Jose, Calif.). Virus- or tumour-specific cytolytic activity was determined by calculating the percentage of CFSE/PI-staining DCs after subtraction of the non-specific CFSE/PI-staining of non-pulsed DCs. […]

AT-2-HIV-pulsed DCs [2] = test: In vivo cytotoxic assay, HIV-specific cytolysis; conditions: AT-2-HIV-immunized BALB/c mice; 5 mg/kg daily intramuscular for 7 days; P<0.01
Description: (§3) Aldrithiol-2 (AT-2)-inactivated HIV (10^9/50 μl) (LU and ANDRIEU, J. Virol., vol. 75, p: 8949-56, 2001) or human chromogranin A (hCgA, a protein associated with neuro-endocrine tumours (DEGORCE et al., Br. J. Cancer., vol. 79, p: 65-71, 1999); 10 μg/50 μl) plus incomplete Freund's adjuvant (IFA) (50 μl) were injected subcutaneously into 4- to 6-week-old male BALB/c mice (Institute of Laboratory Animal Science, Beijing, China). Mice immunized with AT-2-inactivated HIV (n=12) or hCgA (n=12) were randomly divided into two subgroups. One subgroup (n=6) received daily intramuscular injection of 5-azacytidine (Sigma, St Louis, Mo.) at a dose of 5 mg/kg for 7 days and the other subgroup (n=6) received 0.9% sodium chloride as control. Animals were killed at day 7 for ex vivo analysis. In addition, non-immunized mice (n=6) injected with IFA alone were also killed on the same day to establish a background control.
(§4) This assay was performed as described previously (AICHELE et al., Immunity, vol. 6, p: 519-29, 1997). Briefly, target DCs were prepared from BALB/c bone marrow cell suspensions (LUTZ et al., above mentioned, 1999). […] In vivo HIV- or hCgA-specific cytolysis was assessed by calculating the ratio of non-pulsed DCs/pulsed DCs. […]

hCgA-pulsed DCs [3] = test: Ex vivo cytotoxic assay, hCgA-specific cytolysis by splenocytes; type: in vivo; conditions: hCgA-immunized BALB/c mice; 5 mg/kg daily intramuscular for 7 days; P<0.01
Description: as §1, §2

hCgA-pulsed DCs [4] = test: In vivo cytotoxic assay, hCgA-specific cytolysis; conditions: hCgA-immunized BALB/c mice; 5 mg/kg daily intramuscular for 7 days; P<0.01
Description: as §3, §4

[5] = tested on: relapsed or refractory acute myelogenous leukaemia (AML) and myolodysplastic syndrome (MDS); conditions: cited from earlier work
solid tumors = conditions: phase II trials, variety of doses and schedules; cited from earlier work
latent EBV promoters = conditions: patients with EBV-associated tumors; cited from earlier work
[6] = tested on: P16 transcription from a methylation-silenced promoter; conditions: prostate cancer cells that grow in nude mice; cited from earlier work

## Nc1ncn([C@@H]2O[C@H](CO)[C@@H](O)[C@H]2O)c(=O)n1 [5-Azacytidine]
AT-2-HIV-pulsed DCs [1]
  Increase of ex vivo HIV-specific cytolysis of AT-2-HIV-pulsed DCs by splenocytes vs untreated immunized animals: > 2 fold
AT-2-HIV-pulsed DCs [2]
  Increase of in vivo HIV-specific cytolysis of AT-2-HIV-pulsed DCs vs untreated immunized animals: > 3 fold
hCgA-pulsed DCs [3]
  Increase of ex vivo hCgA-specific cytolysis of hCgA-pulsed DCs by splenocytes vs untreated immunized animals: > 2 fold
hCgA-pulsed DCs [4]
  Increase of in vivo hCgA-specific cytolysis of hCgA-pulsed DCs vs untreated immunized animals: > 3 fold
[5]
  Clinical activity as single agent: limited activity
Solid tumors
  Clinical results of single agent in solid tumors: uniformly disappointing
Latent EBV promoters
  CpG methylation of latent EBV promoters in tumor tissues: reversed the dense CpG methylation

## CCN(CC)CCNC(=O)c1ccc(N)cc1 [procanaimide]
[6]
  P16 transcription from a methylation-silenced promoter: reactivate the P16 transcription
